Measured values published in patent publication US8536304B2, “Tumour-associated peptides that bind to MHC molecules” (Immatics Biotechnologies GmbH, priority 2002, dated 2013).

Legend:
Assay type in all cases: cell-based, human
CD8+-T-lymphocytes = experiment: HLA-A*0201-tetramer staining of peripheral blood mononuclear cells from healthy individuals
From the text: Peripheral blood mononuclear cells from healthy patients were stained with HLA-A*0201-tetramers which were folded with adipophilin-, keratin 18- or met-protooncogene (c-Met)-peptides: For generation of the tetramers, recombinant HLA-A*0201-molecules were folded in vitro with the peptides […] (SEQ ID No. 2, adipophilin), […] (SEQ ID No. 3, keratin 18) or […] (SEQ ID No. 1, met-protooncogene, c-Met), purified by means of gel filtration, biotinylated and mixed with streptavidin to link the monomers.
In FIG. 1, the results of double staining are shown in dotplots, whereby in the middle row the results of staining with keratin 18 is shown. Between 0.02 and 0.2% of the CD8^+-positive T-cells were specific for keratin 18.

51Cr-labeled A 498 = experiment: Lysis-inhibition assay with cold peptide-pulsed T2 inhibitor cells, target A 498
Protocol: (§1) To further verify the antigen-specificity and the MHC-restriction of the in-vitro-induced CTL, inhibition assays with non-^51Cr-labeled (“cold”) inhibitor cell lines were performed.
(§2) In doing so, the ability of peptide-pulsed cell lines was analyzed to inhibit the lysis of tumor cells (competition assay). For this purpose, an excess of inhibitor (that is an excess of unlabeled pulsed cells) was used. The ratio of inhibitor (peptide-pulsed cells) to target (tumor cells) was 20:1. When inhibitor cell lines were lysed, no ^51Cr was released, since the inhibitor cell lines were unlabeled.
(§3) Cell line T2 (HLA-A*02; TAP-deficient; see under 2.5.a) was used as inhibitor. Previous to the assay, this cell line T2 was pulsed with the relevant peptides (SEQ ID NOS:1 or 2) or an irrelevant control peptide (Survivin (=Sv), SEQ ID NO:80), respectively.
(§4) In FIGS. 4a and 4b, lysis of the ^51Cr-labeled cell lines U 266 and A 498 was tested without inhibitor cell line (see the curve with black filled boxes); lysis with inhibitor cell line T2, pulsed with an irrelevant peptide (Survivin; SEQ ID NO:80; negative control, curves with the filled triangles); and lyses with the inhibitor cell line T2 pulsed with the c-Met-peptide with SEQ ID NO:1 (curves with the empty rhombus).
With these inhibition assays, the cells were incubated with 10 μg/ml antibody previous to seeding on the 96-well-plates for 30 min.

[1] = tested on: autologous DC of CLL patient; experiment: 51Cr-release assay, CTL of CLL patient against autologous peptide-pulsed DC; conditions: adipophilin-peptide-induced CTL of CLL patient; FIG. 6
Protocol: In the CTL-assays, tumor cells, peptide-pulsed cells of different cell lines and autologous DC were used as target cells. Peptide-pulsed cells were pulsed with 50 μg/ml peptide (SEQ ID No. 1 or SEQ ID No. 2) for 2 hours. All target cells were labeled with [^51Cr] sodium chromate in RP10 (RPMI 1640, supplemented with 10% heat inactivated calf serum and antibiotics) for 1 hour at 37° C. Subsequently, 10^4 cells/well were transferred to a 96-well round bottomed plate. Varying numbers of CTL were added to give a final volume of 200 μl and incubated for 4 hours at 37° C. At the end of the assays, supernatants (50 μl/well) were harvested and counted in a beta-plate counter. […] The spontaneous and maximal release were determined in the presence of either medium or 2% Triton X-100, respectively.
In a further experiment, CTL were generated from PBMNC of HLA-A*0201-positive patient with chronic lymphatic leukemia (CLL), which were specific for adipophilin-peptide with SEQ ID NO:2. The patient was in remission after treatment with fludarabine. Further, autologous CLL-cells and DC of this patient were used as ^51Cr-labeled targets in an assay, in which ^51Cr-release is mediated by the peptide-induced CTL.

51Cr-labeled U 266 = experiment: Lysis-inhibition assay with cold peptide-pulsed T2 inhibitor cells, target U 266; conditions: c-Met-peptide-induced CTL, inhibitor:target 20:1, FIGS. 4a and 4b
Protocol: as §1, §2, §3, §4

## ALLNIKVKL (listed as Homo sapiens) [SEQ ID No. 3, HLA-A*02 ligand, keratin 18 365-373]
CD8+-T-lymphocytes
  healthy individuals with a significant population of specific CD8+-T-lymphocytes: four out of 22

## ELTLGEFLKL (listed as Homo sapiens) [Survivin, irrelevant control peptide, reference compound]
51Cr-labeled A 498; adipophilin-peptide-induced CTL, FIG. 4c
  inhibition of CTL-induced lysis of tumor cell line by T2 cells pulsed with the peptide: not able to inhibit
51Cr-labeled A 498; c-Met-peptide-induced CTL, inhibitor:target 20:1, FIGS. 4a and 4b
  lysis of 51Cr-labeled tumor cells in presence of unlabeled T2 inhibitor cells pulsed with the peptide: not able to inhibit
[1]
  lysis of autologous DC pulsed with the peptide: not lysed
51Cr-labeled U 266
  lysis of 51Cr-labeled tumor cells in presence of unlabeled T2 inhibitor cells pulsed with the peptide: not able to inhibit
